Data from patent publication US20260108527A1, “POLO LIKE KINASE 4 INHIBITORS” (ORIC Pharmaceuticals, Inc., priority 2022, published 2026).

Tests used:
CHP134 = CHP134 CellTiter-Glo (CTG) Assay; assay type: cell-based; conditions: Homo sapiens, CHP-134, 120 h; viable cells by CellTiter-Glo after 5 days
How it was run: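 CHP134 cells were seeded at 200 cells/well for 16 h, then treated in quadruplicate with nine-point 1:3 serial dilutions at 37 °C, 5% CO2. Viable cells were read by CellTiter-Glo luminescence after 5 days, and IC50 values were derived from the dose-response curves.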

human recombinant PLK4 = target: T1, human recombinant PLK4 (Homo sapiens, UniProt O00444); test: PLK4 Biochemical Assay (ADP-Glo); conditions: 0.5 nM PLK4, 8.0 μM ATP, 4.7 μM MBP, 6 hours at RT
T1 construct: purchased ThermoFisher PV6396
T1 sequence (O00444 1-970): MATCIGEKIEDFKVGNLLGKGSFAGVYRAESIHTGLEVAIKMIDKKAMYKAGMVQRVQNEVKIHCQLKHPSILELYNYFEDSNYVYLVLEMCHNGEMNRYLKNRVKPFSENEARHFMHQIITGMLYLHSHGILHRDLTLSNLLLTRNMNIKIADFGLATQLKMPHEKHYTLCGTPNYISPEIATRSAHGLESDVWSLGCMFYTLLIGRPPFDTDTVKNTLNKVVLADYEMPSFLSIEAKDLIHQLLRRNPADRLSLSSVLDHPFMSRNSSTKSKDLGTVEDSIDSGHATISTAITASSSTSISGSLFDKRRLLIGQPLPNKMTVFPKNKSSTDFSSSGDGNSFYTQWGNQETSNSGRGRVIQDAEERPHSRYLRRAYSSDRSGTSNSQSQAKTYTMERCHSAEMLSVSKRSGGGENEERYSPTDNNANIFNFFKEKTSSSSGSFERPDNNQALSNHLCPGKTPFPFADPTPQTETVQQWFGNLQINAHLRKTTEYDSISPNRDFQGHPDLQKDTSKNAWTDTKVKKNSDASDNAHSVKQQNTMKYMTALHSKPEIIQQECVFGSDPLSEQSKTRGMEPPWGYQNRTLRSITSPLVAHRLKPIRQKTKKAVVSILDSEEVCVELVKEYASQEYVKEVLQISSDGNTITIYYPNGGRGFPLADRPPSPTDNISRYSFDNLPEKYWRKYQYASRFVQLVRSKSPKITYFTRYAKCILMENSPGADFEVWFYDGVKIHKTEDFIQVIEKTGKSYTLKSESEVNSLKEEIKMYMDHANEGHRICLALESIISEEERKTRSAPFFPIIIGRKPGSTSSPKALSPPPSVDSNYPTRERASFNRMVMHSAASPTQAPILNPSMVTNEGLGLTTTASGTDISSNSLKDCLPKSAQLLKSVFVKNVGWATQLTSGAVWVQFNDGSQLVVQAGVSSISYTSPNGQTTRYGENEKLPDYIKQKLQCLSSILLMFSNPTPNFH
How it was run: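 PLK4 at 1.0 nM in HEPES pH 7.5 buffer with 10 mM MgCl2, 1 mM EGTA, 1 mM DTT, preincubated 15 min at RT with compound. ADP formed quantified by ADP-Glo luminescence after ATP depletion. IC50 from four-parameter non-linear regression.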

Row | IC50 (human recombinant PLK4) | SMILES | IC50 (CHP134)
1 | 1.31 nM | COc1ccc2c(c1)[C@]1(C[C@H]1c1ccc3c(Nc4cc(-c5cocn5)cnc4OC)n[nH]c3c1)C(=O)N2 [Example 42, (1R,2S)-5′-methoxy-2-(3-{[2-methoxy-5-(1,3-oxazol-4-yl)pyridin-3-yl]amino}-1H-indazol-6-yl)spiro[cyclopropane-1,3′-indol]-2′(1′H)-one] | 281 nM
2 | 0.16 nM | CCOc1cnc(-c2nccs2)nc1Nc1n[nH]c2cc([C@@H]3C[C@@]34C(=O)Nc3ccc(OC)cc34)ccc12 [Example 44, (1R,2S)-2-(3-{[5-ethoxy-2-(1,3-thiazol-2-yl)pyrimidin-4-yl]amino}-1H-indazol-6-yl)-5′-methoxyspiro[cyclopropane-1,3′-indol]-2′(1′H)-one] | 22 nM
3 | 0.139 nM | CCOc1cnc(C#CC(C)(C)O)nc1Nc1n[nH]c2cc([C@@H]3C[C@@]34C(=O)Nc3ccc(OC)cc34)ccc12 [Example 45, (1R,2S)-2-(3-((5-ethoxy-2-(3-hydroxy-3-methylbut-1-yn-1-yl)pyrimidin-4-yl)amino)-1H-indazol-6-yl)-5′-methoxyspiro[cyclopropane-1,3′-indolin]-2′-one] | 890 nM
4 | 1.25 nM | COc1ccc2c(c1)[C@]1(C[C@H]1c1ccc3c(Nc4cc(-c5cnn(CC(F)F)c5)cnc4OC)n[nH]c3c1)C(=O)N2 [Example 46, (1R,2S)-2-(3-((5-(1-(2,2-difluoroethyl)-1H-pyrazol-4-yl)-2-methoxypyridin-3-yl)amino)-1H-indazol-6-yl)-5′-methoxyspiro[cyclopropane-1,3′-indolin]-2′-one] | 370 nM
